Results taken from PMC9320560, “Structure-Based Identification and Biological Characterization of New NAPRT Inhibitors” (Pharmaceuticals, 2022).
“Also recorded” adds a separate entry of the source.

Key:
OVCAR-5 cells = experiment: Cell viability assay (SRB): sensitization of OVCAR-5 cells to FK866; assay type: cell-based; details: for combination index (CI) with FK866: 0.3 µM nicotinic acid in medium; for cell viability, single-agent treatment: 72 h, 100 nM FK866 alone or 1 mM 2-HNA alone
From the text: The first assay that we performed to test the putative NAPRT inhibitors was based on the principle that NAPRT-expressing OVCAR-5 cells are resistant to FK866 whereas the simultaneous chemical inhibition of NAPRT with 2-HNA renders the cells sensitive to the NAMPT inhibitor due to the cooperation between FK866 and 2-HNA in depleting the intracellular NAD pool. […] Thus, 2-HNA was used throughout the study as a positive control in our cell viability assay and any test compound resembling its activity was considered a potential NAPRT inhibitor. It is worth mentioning that, to reflect the physiological contribution of the Preiss–Handler pathway to NAD biosynthesis, all cell-based assays that are presented in this study were performed under a nicotinic acid concentration of 0.3 µM in the cell culture medium (Figure S1).
We decided to use combination index (CI) as a measure to determine the degree of interaction between FK866 and the test compounds i.e., to identify potential new NAPRT inhibitors. A CI < 1 indicates a synergistic interaction between the test compound and FK866 in decreasing cell viability. A CI = 1 and a CI > 1 are indicative of an additive and of an antagonistic effect, respectively.
A total of 3 × 10^3 OVCAR-5 cells/well were plated in 96-well plates in the regular culture medium. 24 h later the cell medium was removed and the cells were subsequently incubated either in the regular medium that was supplemented with 0.3 µM nicotinic acid (control wells) or in the treatment medium which contained 0.3 µM nicotinic acid and combinations of 100 nM FK866, 1 mM 2-HNA, and 100 µM of test compounds. Each condition was performed in triplicate and the cells remained under treatment for a total of 72 h at 37 °C. Thereafter, the culture plates were fixed with 10% trichloroacetic acid at 4 °C for 20 min, washed with cold water, and dried overnight. The plates were stained with 0.04% sulforhodamine B (SRB) in 1% acetic acid, washed four times with 1% acetic acid to remove the unbound dye, and dried overnight. Lastly, Trizma®-base 10 mM was added to the plates and cell viability was quantified by absorbance measurements on a Tecan Infinite® 200 PRO instrument.
To quantify the extent of the interaction between FK866 and the putative NAPRT inhibitors or 2-HNA, we applied the combination index (CI) equation that is depicted below:(1) CI=mortality % A+mortality % B /mortality % A+B where: ‘A’ refers to the treatment of cells with FK866 100 nM; ‘B’ refers to the treatment of cells with the test compound 100 µM or 2-HNA 1 mM; ‘A + B’ refers to the coadministration of FK866 100 nM and the test compound at 100 µM or 2-HNA 1 mM. A synergistic interaction is evidenced by CI < 1, additive effect produces CI close to 1, whereas CI > 1 corresponds to antagonistic effect.

[1] = tested on: intracellular NAD+ levels in OVCAR-5 cells; experiment: Intracellular NAD+ quantification (enzyme cycling assay); assay type: cell-based; details: for drop in NAD+ levels / interaction with FK866 in NAD+ reduction: test compound 100 µM + 30 nM FK866, 20 h
Description: The assay that was performed on OVCAR-5 cell viability led to a set of potential NAPRT inhibitors, namely IM 29, IM 38, IM 43, IM 49, MMB-128, MMB-131, MMB-268, and MMB-312. In order to confirm that the cited compounds sensitized OVCAR-5 cells to the NAMPT inhibitor FK866 by interfering with NAD biosynthesis, we quantified the intracellular NAD^+ levels in OVCAR-5 cells after 20-h treatments with these compounds with or without FK866.
Figure 3 A subset of test compounds cooperates synergistically with FK866 in decreasing intracellular NAD^+ levels in OVCAR-5 cells. The compounds were administered to cells alone or in combination with FK866 for 20 h. Quantification of NAD^+ was performed via an enzyme cycling assay and normalized to cell lysate protein content. The results are the mean ± SD of two technical replicates with two biological replicates each. *, p < 0.05; **, p < 0.01; ***, p < 0.001 vs. the respective control, i.e., FK866-untreated control for the test compounds that were administered alone to cells, and FK866-treated control for the combinations of test compound and FK866; §, p < 0.05 versus FK866-untreated, control cells.
A total of 1 × 10^5 OVCAR-5 cells/well were plated in 24-well plates in the regular culture medium. 24 h later the cell medium was removed and the cells were cultured either in the regular medium that was supplemented with 0.3 µM nicotinic acid (control wells) or in the treatment medium (regular medium with 0.3 µM nicotinic acid and combinations of 30 nM FK866, 1 mM 2-HNA and 100 µM of test compounds). Each condition was performed in duplicate and the cells remained under treatment for a total of 20 h at 37 °C. Thereafter, the cell medium was removed and the cells were harvested and lysed with 0.6 M perchloric acid (PCA). Samples in PCA were neutralized by diluting the extracts in 100 mM sodium phosphate buffer (pH 8) and the total intracellular NAD^+ content was determined with a sensitive enzyme cycling assay that exploits the use of alcohol dehydrogenase. The obtained NAD^+ values were normalized to cell lysate protein content that was quantified by the Bradford method.

[2] = Preparation of 50 mM stock solution in DMSO; assay type: physicochemical
Description: As noted in the methodology section, a 50 mM stock solution in DMSO was prepared for each compound.
Compounds were obtained in mg quantity and subsequently dissolved in DMSO to prepare a 50 mM stock solution. The purity of all compounds was > 95%, as declared by vendors or collaborators.

recombinant hNAPRT [3] = target: T1, recombinant hNAPRT (Homo sapiens, UniProt Q6XQN6); experiment: hNAPRT inhibition assay (HPLC of NA and NAMN); assay type: biochemical; details: for IC50: 100 µM nicotinic acid, 200 µM PRPP, 45 min at 37 °C, formation of NAMN
T1 construct: His-tag (C); made in house; host or cells: E. coli
T1 sequence (Q6XQN6 1-538): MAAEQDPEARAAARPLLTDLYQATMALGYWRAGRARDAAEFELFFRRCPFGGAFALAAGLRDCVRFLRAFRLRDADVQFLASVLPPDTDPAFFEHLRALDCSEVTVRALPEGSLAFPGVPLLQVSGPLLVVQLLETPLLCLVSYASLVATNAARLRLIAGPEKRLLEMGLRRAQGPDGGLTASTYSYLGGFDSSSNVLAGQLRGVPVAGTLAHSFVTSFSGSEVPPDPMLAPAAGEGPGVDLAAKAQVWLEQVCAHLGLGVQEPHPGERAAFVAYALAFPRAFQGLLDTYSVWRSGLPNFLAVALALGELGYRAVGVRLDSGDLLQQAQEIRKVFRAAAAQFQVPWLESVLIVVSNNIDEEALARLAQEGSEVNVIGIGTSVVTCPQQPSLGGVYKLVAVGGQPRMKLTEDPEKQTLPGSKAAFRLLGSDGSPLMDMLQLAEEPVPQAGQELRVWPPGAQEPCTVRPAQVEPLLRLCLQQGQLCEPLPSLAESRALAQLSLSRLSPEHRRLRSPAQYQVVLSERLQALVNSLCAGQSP
Description: hNAPRT was expressed in E. coli with an N-terminal His-tag and purified as described above. The enzymatic reactions were carried out at 37 °C in standard reaction mixtures containing 50 mM Tris-HCl, pH 7.4, 10 mM KCl, 2 mM MgCl2, 100 µM nicotinic acid, 200 µM PRPP, 0.1 mg/mL purified recombinant hNAPRT, and the test compound at five different concentrations ranging from 20 µM to 1000 µM.
Blank mixtures without compounds but with equal amounts of DMSO were set in parallel and their rates fixed as 100% activity. NAPRT was pre-incubated with the compounds for 5 min and reactions were started by the addition of the enzyme substrates and stopped after 45 min of incubation by heating to 85 °C for 3 min. Following centrifugation of the reaction mix, the supernatant was analyzed by HPLC by injection into a reverse-phase column (XTerra MS C18 Column, 125Å, 5 μm, 4.6 × 150 mm, Waters). The eluted species were monitored at 260 nm and the peaks of nicotinic acid and nicotinic acid mononucleotide were quantified with reference to standard curves. The percentage of nicotinic acid conversion was calculated for each reaction and the IC50 values for the active compounds were determined with GraphPad Prism 8 software (GraphPad Software, S. Diego, CA, USA).

recombinant hNAPRT [4] = target: T1, recombinant hNAPRT; experiment: hNAPRT melting temperature determination (DSF); assay type: binding; details: 100 μM inhibitor, 5 μM hNAPRT
Description: With the purpose to provide support to the results that were obtained in the enzymatic activity assay, the ability of the new hNAPRT inhibitors to stabilize the protein through binding was evaluated via the measurement of the hNAPRT melting temperature in the presence or absence of the inhibitors at a 100 μM concentration. The resulting Tm shifts are depicted in Figure 5. […] A plausible explanation for this outcome is that larger compounds are more likely to establish a higher number of interactions and thus result in greater stabilization of a given protein.
Figure 5 NAPRT inhibitors MMB-128 and MMB-131 directly engage recombinant hNAPRT. Differential scanning fluorimetry (DSF) was used to determine the thermal stabilization of hNAPRT protein upon inhibitor binding. Recombinant hNAPRT protein was exposed to 100 μM hNAPRT inhibitors over a defined temperature gradient and the melting temperature Tm was calculated for each compound. The data are shown as means ± standard error of the means (SEM) of two technical replicates with three biological replicates each. * p < 0.05; unpaired t-test.
The melting temperature ™ of hNAPRT was determined through the differential scanning fluorimetry (DSF) technique. Triplicates of 100 μM of each test compound and DMSO were added to a 96-well clear bottom BioRad PCR plate. Subsequently, DSF protein buffer, containing 5 μM of recombinant hNAPRT protein and 5X SPYRO® Orange (S5692, Sigma-Aldrich) in 20 mM HEPES pH 7.5, 100 mM NaCl, 10 mM Mg-acetate, and 1 mM DTT was added. The plate was sealed and exposed to a temperature gradient from 20 to 95 °C in a BioRad CFX96 Real-Time System. The fluorescence for each temperature increment was measured at 465–580 nm with an excitation wavelength of 465 nm. The DSF templates that were provided by Niesen et al. were used for data analysis followed by GraphPad Prism 8 for statistical analysis of the generated data.

[5] = test compound 100 µM + 100 nM FK866, 72 h

SMILES	cytotoxicity in combination with FK866 (OVCAR-5 cells; [5])	drop in NAD+ levels [1]	IC50 (recombinant hNAPRT [3]) [µM]	Tm shift of hNAPRT (recombinant hNAPRT [4])	also measured
O=C(O)c1cccnc1O [Compound 2-HNA, 2-hydroxynicotinic acid, reference compound]					cytotoxicity of co-treatment with FK866 (OVCAR-5 cells; 1 mM 2-HNA + 100 nM FK866, 72 h): pronounced cell death; also recorded: marked cytotoxicity; combination index (CI) with FK866 (OVCAR-5 cells; 2-HNA 1 mM + 100 nM FK866, 72 h): 0.08; cell viability, single-agent treatment (OVCAR-5 cells): withstood; drop in intracellular NAD+ concentration ([1]; 1 mM 2-HNA + 30 nM FK866, 20 h): 86%
O=C(/C=C/c1cccnc1)NCCCCC1CCN(C(=O)c2ccccc2)CC1 [FK866, reference compound]					cell viability, single-agent treatment (OVCAR-5 cells): withstood; decrease of intracellular NAD+ levels ([1]; 30 nM FK866 alone, 20 h): 24%
Cc1cc(C(=O)O)nc(N)n1 [IM 28]					solubility in DMSO [2]: could not be solubilized
NCc1cc2c(cc1Cl)OCO2 [IM 29]	high cytotoxicity	42.9–56.4%	160	remained unchanged	potentiation of the effect of FK866 in reducing intracellular NAD levels ([1]; combination with FK866): more than two-fold
CC(Oc1ccccc1Cl)C(=O)Nc1cccc(C(=O)O)c1 (stereo not drawn) [IM 38]	less pronounced cytotoxicity	42.9–56.4%	265	remained unchanged	
COc1ccc2cc(C=O)c(O)nc2c1 [IM 43]	high cytotoxicity				interaction with FK866 in NAD+ reduction [1]: additive effects
O=C(Cn1c(=O)sc2ccccc21)Nc1cccc(C(=O)O)c1 [IM 49]	less pronounced cytotoxicity		232	remained unchanged	interaction with FK866 in NAD+ reduction [1]: lower degree of synergism; effect on intracellular NAD+ levels, compound alone ([1]; test compound 100 µM alone, 20 h): strongly reduced
CC(C)(C)C(=O)OCCCn1cc(CCCN2CC(O)C(O)C2CNC(=O)c2ccccc2)nn1 (stereo not drawn) [MMB-128]	high cytotoxicity	42.9–56.4%		approximately 0.5 °C	
CC(C)(C)C(=O)OCCCn1cc(CCCN2CC(O)C(O)C2Cn2cc(-c3ccccc3)nn2)nn1 (stereo not drawn) [MMB-131]	less pronounced cytotoxicity	42.9–56.4%	242	approximately 0.5 °C	
OC1CNC(Cn2cc(-c3cc(C(F)(F)F)cc(C(F)(F)F)c3)nn2)C1O (stereo not drawn) [MMB-268]	high cytotoxicity	42.9–56.4%			inhibition of hNAPRT (recombinant hNAPRT [3]; data not shown): negligible inhibition
COc1cc(OC)cc(-c2cn(CC3NCC(O)C3O)nn2)c1 (stereo not drawn) [MMB-312]	less pronounced cytotoxicity				combination index (CI) with FK866 (OVCAR-5 cells; test compound 100 µM + 100 nM FK866, 72 h, CI < 1 synergistic): 0.12; interaction with FK866 in NAD+ reduction [1]: additive effects
